# Source: patent publication US20160237450A1, “METHOD FOR ENHANCING DROUGHT TOLERANCE IN PLANTS” (Plant Response Biotech S.L., priority 2015, published 2016)
# Legend:
# [1] = system: tomato plants ('Moneymaker'); assay: Tomato stem size under limited water irrigation; type: in vivo
# Procedure: For each drought or limited water experiment 480 seeds (of either pepper, barley, tomato, cucumber or corn) were sown, producing 384 plants in 512 cm^3 pots (4 plants per pot). Plants were grown under chamber conditions at 21° C. for 3 weeks. Then, the plants were moved to a greenhouse, where average temperature was 25° C. to 28° C. Spray and irrigation treatments as described herein were done when the plants had two extended leaves and the next pair of leaves were coming up.
# Treatments: Twelve pots (containing 48 plants) were irrigated with 40 ml of either: water, 0.1 g/L TMAO di-hydrate solution, 1.0 g/L TMAO di-hydrate solution, or 5.5 g/L TMAO di-hydrate solution. Another set of 12 pots containing 48 plants were sprayed with 40 ml of either water (3.3 ml in average per pot), a solution containing 0.1 g/L TMAO di-hydrate solution, 1.0 g/L TMAO di-hydrate, or 5 g/L, or 10 g/L TMAO di-hydrate. Further sets of 12 pots containing 48 plants were both sprayed with each initial solution TMAO di-hydrate solution and further irrigated with the same TMAO di-hydrate solutions used in the control water sprayed plants. All pots were also watered with 40 ml of water. The sprayed plants were watered with the same volume of water as the “irrigated plants). The pots were located on plastic glass to maintain constant moisture and to avoid liquid spillage during watering. Trays containing the pots were located on greenhouse tables. The distribution of the trays on the table and the position on the pots in the tray was changed every week to avoid position effects.
# After the treatments described above, for the “limited water” experiments plants were watered with 20 ml of water or solution instead of 40 ml when the first plants started to wilt. The stem length was recorded as analyzed for the limited water experiments in which the plants are watered with 50-30% of the water that the plant requires.
# TMAO di-hydrate applied exogenously which increases the endogenous content of TMAO as if the plants were overexpressing an FMO protein at least 4 times increases plant stem size in tomato under limited water irrigation. ‘Moneymaker’ tomato seeds were sown, grown and treated as described.
# [2] = system: tomato plants ('Rio Grande'); assay: Tomato fruit production under limited water irrigation; type: in vivo; settings: 30% water irrigation; 1 g/L spray every 4 weeks
# Description: TMAO di-hydrate applied exogenously which increases the endogenous content of TMAO as if the plants were overexpressing an FMO protein at least 4 times increases plant production in tomato under limited water irrigation. ‘Rio Grande’ tomato seeds were sown, grown and treated as described. Spray treatments with 1 g/L TMAO di-hydrate increased both fruit size and fruit production.
# leek plants = assay: Yield production without drought stress, leek; type: in vivo; settings: 1 g/l spray every 4 weeks for 3 months, no drought stress
# Procedure: (§1) In order to determine the plant yield productivity under normal conditions, ‘Sabrina’, ‘Candonga’ and ‘Fortuna’ strawberry varieties, leek, lettuce, “Iceberg” variety, broccoli “Parthenon” variety, celery or kohlrabi plants, were grown under standard production conditions and 120 plants of each variety per treatment (where the treatment was a control comprising standard watering or 1 g/L of TMAO di-hydrate spray every four weeks) were analyzed. Plants were located in four (4) different positions for each group of 30 plants from the same treatment. Fruits, leaves or roots were harvested from individual plants and total weight was determined for each plant.
# (§2) Root or leaves yield was determined in the plants treated with 1 g/l of TMAO di-hydrate or water as described above in order to evaluate the trade-off costs of the treatment with no drought stress.
# celery plants = assay: Yield production without drought stress, celery; type: in vivo; settings: 1 g/l spray every 4 weeks for 3 months, no drought stress
# Procedure: as §1, §2
# corn plants ('FAO700') = assay: Corn grains per cob under limited water; type: in vivo; settings: 30% water
# Procedure: In order to determine the drought or drought stress tolerance after seed treatments with TMAO di-hydrate and germination in the presence of TMAO di-hydrate, barley “Hispanic” seeds, corn “FAO700” seeds, and “Sambro” sunflower seeds were surface sterilized for 3 minutes in ethanol 70%, then rinsed twice and finally included in a pre-treatment solution of 1 g/L TMAO di-hydrate solution (or just water) under shaking for 3 hours at a dose of 1 litre per Kg of seeds. Then, the seeds were sown in randomized plots of 10 sqm in a surface of 2.000 sqm. Chlorophyll content was measured 1 month before harvest. In corn irrigation was applied in half of the plots while the other half only received an initial establishment watering. The barley plots received 200 l of rain per m^2 through the growing season. Some of the plots received a second spray treatment with 1 g/liter of TMAO. […] At least 3 independent plants were treated per experiment.
# TMAO di-hydrate applied exogenously which increases the endogenous content of TMAO as if the plants were overexpressing an FMO protein at least 4 times increases plant production in corn under limited water irrigation. ‘FAO700’ corn seeds were sown, grown and treated as described above. Spray treatments with 1 g/L TMAO di-hydrate increased plant grain production.
# [3] = system: broccoli plants (Parthenon); assay: Broccoli inflorescence fresh weight with constant TMAO irrigation; type: in vivo; settings: 100% water; constant irrigation with 1 g/L
# Description: TMAO di-hydrate applied exogenously which increases the endogenous content of TMAO as if the plants were overexpressing an FMO protein at least 4 times increases plant production in broccoli. Parthenon broccoli seeds were sown, grown and treated as described above. Constant irrigation with 1 g/L TMAO di-hydrate increased plant inflorescence production.
# [4] = TMAO accumulation in pepper leaves after spray (NMR); settings: 1 g/l spray
# Procedure: TMAO content in plants was determined by harvesting three leaves per treatment and freezing them in liquid nitrogen before the Nuclear Magnetic Resonance spectroscopy (NMR) determination. At least three independent plants were treated per experiment. TMAO content in plant extracts was quantified by NMR spectrometry using a Bruker Advance DRX 500 MHz spectrometer equipped with a 5 mm inverse triple resonance probe head. A known concentration of [3-(trimethylsilyl) propionic-2,2,3,3-d4 acid sod. salt, (TSP-d4)] was used as internal reference. All experiments were conducted at 298K and the data was acquired and processed using the same parameters. Spectra processing was performed on PC station using Topspin 2.0 software (Bruker).
# ‘Murano’ pepper seeds and ‘Bomi’ barley seeds were sown and grown as described above. Control plants (six weeks old) were sprayed with water and pepper treated plants were sprayed with 1 g/l of TMAO di-hydrate while barley plants were sprayed with 1 g/l of TMAO di-hydrate formulated with 0.1% of C8-C10 Alkylpolysaccharide. Leaves were harvested and TMAO was determined by NMR. The percentage of TMAO increase compared to untreated controls was determined for each time point.
compound,measurement,setting,value
"C[N+](C)(C)[O-].O.O [TMAO di-hydrate, trimethylamine N-oxide di-hydrate]",AVERAGE STEM SIZE (cm),"[1]; initial treatment 0.1 g/L, irrigations 1 g/L",12.32 ± 0.56 cm
same,AVERAGE STEM SIZE (cm),"[1]; initial treatment 0.1 g/L, irrigations water",11.06 ± 0.55 cm
same,AVERAGE STEM SIZE (cm),"[1]; initial treatment 1 g/L, irrigations 1 g/L",13.77 ± 0.55 cm
same,AVERAGE STEM SIZE (cm),"[1]; initial treatment 1 g/L, irrigations water",11.59 ± 0.55 cm
same,AVERAGE STEM SIZE (cm),"[1]; initial treatment 5 g/L, irrigations 1 g/L",14.6 ± 0.55 cm
same,AVERAGE STEM SIZE (cm),"[1]; initial treatment 5 g/L, irrigations water",14.2 ± 0.56 cm
same,AVERAGE STEM SIZE (cm),"[1]; initial treatment water, irrigations 1 g/L",12.97 ± 0.55 cm
same,AVERAGE WEIGHT (grams/fruit),[2],76.73 ± 17.67 grams/fruit
same,increase of fruit production over untreated plants with 30% irrigation,[2],45%
same,"Yield production, % Control",leek plants,102%
same,"Yield production, % Control",celery plants,100%
same,AVERAGE NUMBER OF GRAINS PER COB,corn plants ('FAO700'); 1 g/L seed treatment,542.89 ± 41.22
same,AVERAGE NUMBER OF GRAINS PER COB,corn plants ('FAO700'); 1 g/L spray,511.34 ± 19.70
same,increase in total number of grains per corn cob compared to 100% water irrigation,"corn plants ('FAO700'); 1 g/L, row 4",2%
same,AVERAGE FRESH WEIGHT (GRAMS) PER INFLORESCENCE,[3],220.2 ± 16.6 GRAMS
same,increase of broccoli inflorescence fresh weight,[3],70%
same,TMAO % Control,[4]; 1 day post spray,529%
same,TMAO (μM) in leaves,[4]; 1 day post spray,1755.2 µM
same,TMAO % Control,[4]; 10 days post spray,373%
same,TMAO (μM) in leaves,[4]; 10 days post spray,1237.6 µM
same,TMAO % Control,[4]; 20 days post spray,286%
same,TMAO (μM) in leaves,[4]; 20 days post spray,948.9 µM
same,TMAO % Control,[4]; 30 days post spray,135%
same,TMAO (μM) in leaves,[4]; 30 days post spray,449.2 µM
same,TMAO % Control,[4]; 40 days post spray,213%
same,TMAO (μM) in leaves,[4]; 40 days post spray,709.4 µM
